# Molecular target: T1, humanen CGRP-Rezeptor (Homo sapiens, UniProt O60894+Q16602)
# T1 construct: endogenous in cells; host or cells: SK-N-MC cells (membrane homogenate)
# Experiment: Binding studies with SK-N-MC cell membranes, displacement of 125I-Iodotyrosyl-CGRP
# Conditions: SK-N-MC membrane homogenate, 50 pM 125I-Iodotyrosyl-CGRP, 180 min, room temperature
# Source text: Zum Nachweis der Affinität der voranstehend genannten Verbindungen zu humanen CGRP-Rezeptoren und ihrer antagonistischen Eigenschaften wurden die folgenden Versuche durchgeführt: • A. Bindungsstudien mit (den humanen CGRP-Rezeptor exprimierenden) SK-N-MC-Zellen SK-N-MC-Zellen werden in "Dulbecco's modified Eagle Medium" kultiviert. Das Medium konfluenter Kulturen wird entfernt. Die Zellen werden zweimal mit PBS-Puffer (Gibco 041-04190 M) gewaschen, durch Zugabe von PBS-Puffer, versetzt mit 0.02% EDTA, abgelöst und durch Zentrifugation isoliert. Nach Resuspension in 20 ml "Balanced Salts Solution" [BSS (in mM): NaCl 120, KCl 5.4, NaHCO3 16.2, MgSO4 0.8, NaHPO4 1.0, CaCl2 1.8, D-Glucose 5.5, HEPES 30, pH 7.40] werden die Zellen zweimal bei 100 x g zentrifugiert und in BSS resuspendiert. Nach Bestimmung der Zellzahl werden die Zellen mit Hilfe eines Ultra-Turrax homogenisiert und für 10 Minuten bei 3000 x g zentrifugiert. Der Überstand wird verworfen und das Pellet in Tris-Puffer (10 mM Tris, 50 mM NaCl, 5 mM MgCl2, 1 mM EDTA, pH 7.40), angereichert mit 1% Rinderserum-Albumin und 0.1% Bacitracin, rezentrifugiert und resuspendiert (1 ml / 1000000 Zellen). Das Homogenat wird bei -80°C eingefroren. Die Membranpräparationen sind bei diesen Bedingungen für mehr als 6 Wochen stabil. Nach Auftauen wird das Homogenat 1:10 mit Assay-Puffer (50 mM Tris, 150 mM NaCl, 5 mM MgCl2, 1 mM EDTA, pH 7.40) verdünnt und 30 Sekunden lang mit einem Ultra-Turrax homogenisiert. 230 µl des Homogenats werden für 180 Minuten bei Raumtemperatur mit 50 pM ^125I-Iodotyrosyl-Calcitonin-Gene-Related Peptide (Amersham) und ansteigenden Konzentrationen der Testsubstanzen in einem Gesamtvolumen von 250 µl inkubiert. Die Inkubation wird durch rasche Filtration durch mit Polyethylenimin (0.1%) behandelte GF/B-Glasfaserfilter mittels eines Zellharvesters beendet. Die an Protein gebundene Radioaktivität wird mit Hilfe eines Gammacounters bestimmt. Als nichtspezifische Bindung wird die gebundene Radioaktivität nach Gegenwart von 1 µM humanem CGRP-alpha während der Inkubation definiert. […]
# T1 sequence (Q16602 23-461): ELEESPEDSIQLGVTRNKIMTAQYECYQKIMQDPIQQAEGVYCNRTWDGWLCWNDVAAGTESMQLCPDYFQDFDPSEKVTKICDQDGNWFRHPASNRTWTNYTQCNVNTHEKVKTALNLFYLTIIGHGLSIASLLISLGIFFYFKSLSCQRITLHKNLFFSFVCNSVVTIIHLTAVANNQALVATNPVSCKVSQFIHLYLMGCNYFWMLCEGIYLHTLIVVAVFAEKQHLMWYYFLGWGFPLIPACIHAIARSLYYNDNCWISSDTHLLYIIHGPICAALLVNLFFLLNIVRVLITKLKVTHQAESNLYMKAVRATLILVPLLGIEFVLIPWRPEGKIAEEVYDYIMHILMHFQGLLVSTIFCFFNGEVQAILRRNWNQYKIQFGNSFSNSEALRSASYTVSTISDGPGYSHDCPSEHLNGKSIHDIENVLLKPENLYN
# T1 sequence (O60894 27-148): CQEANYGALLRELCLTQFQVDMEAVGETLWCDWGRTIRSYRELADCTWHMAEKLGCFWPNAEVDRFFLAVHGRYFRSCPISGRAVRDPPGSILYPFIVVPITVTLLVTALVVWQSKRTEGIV
row,SMILES,Ki [nM]
1,"Cn1cc(C(=O)c2cc(Nc3ccc4c(c3)CC3(C4)C(=O)Nc4ncccc43)ncn2)c2ccccc21 (stereo not drawn) [(2), 5-(6-(1-Methyl-1H-indol-3-carbonyl)pyrimidin-4-ylamino)-1,3-dihydrospiro[inden-2,3'-pyrrolo[2,3-b]pyridin]-2'(1'H)-on]",89
2,"Cn1cc(C(=O)c2cc(N3CCC4(CC3)OC(=O)Nc3ccccc34)ncn2)c2ccccc21 [(3), 1'-(6-(1-Methyl-1H-indol-3-carbonyl)pyrimidin-4-yl)spiro[benzo[d][1,3]oxazin-4,4'-piperidin]-2(1H)-on]",204
3,"Cn1cc(C(=O)c2cc(N3CCC4(CC3)NC(=O)Nc3ccccc34)ncn2)c2ccccc21 [(1), 1-(6-(1-Methyl-1H-indol-3-carbonyl)pyrimidin-4-yl)-1'H-spiro[piperidin-4,4'-chinazolin]-2'(3'H)-on]",81
